Measured values as given in ChEMBL document CHEMBL6153089, “Design, Synthesis, and Biological Evaluation of Thieno[3,2-d]pyrimidine Derivatives as the First Bifunctional PI3Kδ Isoform Selective/Bromodomain and Extra-Terminal Inhibitors” (J Med Chem, 2025).
The source made the active and inactive calls. No cut-off for these calls is given here.

Key:
[1] = test system: SUD4; experiment: Induction of apoptosis in human SU-DHL-4 cells assessed as early apoptotic cells at 0.25 uM incubated for 24 hrs by Annexin V-FITC/PI staining based flow cytometric analysis (reference value: 25.3 %); type: functional
[2] = test system: SUD4; experiment: Induction of apoptosis in human SU-DHL-4 cells assessed as necrotic cells at 0.5 uM incubated for 24 hrs by Annexin V-FITC/PI staining based flow cytometric analysis (reference value: 0.642 %); type: functional
[3] = Half-life in female BALB/c mouse at 20 mg/kg, po measured after 24 hrs by LC-MS/MS analysis; type: ADME, organism-based; conditions: in vivo
[4] = test system: SU-DHL-6; experiment: Induction of apoptosis in human SU-DHL-6 cells assessed as necrotic cells at 0.5 uM incubated for 24 hrs by Annexin V-FITC/PI staining based flow cytometric analysis (reference value: 0.246 %); type: functional
[5] = test system: SU-DHL-6; experiment: Induction of apoptosis in human SU-DHL-6 cells assessed as viable cells at 1 uM incubated for 24 hrs by Annexin V-FITC/PI staining based flow cytometric analysis (reference value: 61.2 %); type: functional; conditions: read-out: Activity
[6] = target: Bromodomain-containing protein 4 (Homo sapiens, UniProt O60885); experiment: Inhibition of His-tagged BRD4-BD1 (unknown origin) incubated for 30 mins in presence of ATP by Alphascreen assay
[7] = AUC (0 to t) in female BALB/c mouse at 1 mg/kg, iv measured after 12 hrs by LC-MS/MS analysis; type: ADME, organism-based; conditions: in vivo
[8] = test system: SUD4; experiment: Induction of apoptosis in human SU-DHL-4 cells assessed as viable cells at 0.5 uM incubated for 24 hrs by Annexin V-FITC/PI staining based flow cytometric analysis (reference value: 65.2 %); type: functional; conditions: read-out: Activity
[9] = target: PI3-kinase p110-delta/p85-alpha (Homo sapiens) (UniProt P27986+O00329); experiment: Inhibition of human p110delta/p85alpha at 1 uM relative to control; type: protein-complex assay
[10] = test system: SUD4; experiment: Induction of apoptosis in human SU-DHL-4 cells assessed as viable cells at 0.25 uM incubated for 24 hrs by Annexin V-FITC/PI staining based flow cytometric analysis (reference value: 65.2 %); type: functional; conditions: read-out: Activity
[11] = test system: SU-DHL-6; experiment: Antitumor activity against human SU-DHL-6 cells xenografted in female BALB/c mouse model assessed as reduction in c-Myc level in tumor at 20 mg/kg, po administered once daily via gavage for 15 days by Western blot analysis; type: functional, organism-based; conditions: time 15.0 day
[12] = AUC (0 to t) in female BALB/c mouse at 20 mg/kg, po measured after 24 hrs by LC-MS/MS analysis; type: ADME, organism-based; conditions: in vivo
[13] = target: Bromodomain-containing protein 2 (Homo sapiens, UniProt P25440); experiment: Inhibition of His-tagged BRD2-BD1 (unknown origin) incubated for 30 mins in presence of ATP by Alphascreen assay
Sequence of Bromodomain-containing protein 2 (P25440 whole entry): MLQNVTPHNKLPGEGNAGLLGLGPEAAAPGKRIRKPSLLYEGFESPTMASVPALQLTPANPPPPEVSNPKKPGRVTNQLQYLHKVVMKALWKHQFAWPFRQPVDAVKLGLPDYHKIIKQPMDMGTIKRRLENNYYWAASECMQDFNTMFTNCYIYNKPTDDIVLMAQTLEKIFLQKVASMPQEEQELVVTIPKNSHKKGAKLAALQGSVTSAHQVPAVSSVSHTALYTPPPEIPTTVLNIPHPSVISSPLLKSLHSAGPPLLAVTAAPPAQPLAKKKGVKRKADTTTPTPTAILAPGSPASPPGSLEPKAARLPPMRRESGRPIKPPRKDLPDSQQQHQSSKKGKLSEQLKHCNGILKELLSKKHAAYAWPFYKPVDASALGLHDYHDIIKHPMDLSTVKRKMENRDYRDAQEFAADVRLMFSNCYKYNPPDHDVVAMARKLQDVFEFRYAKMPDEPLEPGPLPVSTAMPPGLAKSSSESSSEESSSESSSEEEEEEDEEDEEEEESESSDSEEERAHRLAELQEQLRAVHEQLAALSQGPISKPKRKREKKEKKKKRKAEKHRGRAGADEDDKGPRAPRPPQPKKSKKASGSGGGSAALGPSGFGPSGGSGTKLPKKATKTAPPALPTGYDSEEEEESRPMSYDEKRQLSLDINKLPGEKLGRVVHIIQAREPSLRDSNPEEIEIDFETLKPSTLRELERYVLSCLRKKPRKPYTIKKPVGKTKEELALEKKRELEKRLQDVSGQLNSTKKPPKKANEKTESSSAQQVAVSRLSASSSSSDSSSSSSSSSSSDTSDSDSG

[14] = test system: SUD4; experiment: Induction of apoptosis in human SU-DHL-4 cells assessed as early apoptotic cells at 1 uM incubated for 24 hrs by Annexin V-FITC/PI staining based flow cytometric analysis (reference value: 25.3 %); type: functional
[15] = test system: SU-DHL-6; experiment: Inhibition of AKT phosphorylation in human SU-DHL-6 cells incubated for 12 hrs by Western blot analysis; type: cell-based; conditions: dose 0.25-1 µM
[16] = test system: SU-DHL-6; experiment: Induction of apoptosis in human SU-DHL-6 cells assessed as necrotic cells at 1 uM incubated for 24 hrs by Annexin V-FITC/PI staining based flow cytometric analysis (reference value: 0.246 %); type: functional
[17] = test system: SU-DHL-6; experiment: Induction of apoptosis in human SU-DHL-6 cells assessed as viable cells at 0.5 uM incubated for 24 hrs by Annexin V-FITC/PI staining based flow cytometric analysis (reference value: 61.2 %); type: functional; conditions: read-out: Activity
[18] = Clearance in female BALB/c mouse at 1 mg/kg, iv measured after 12 hrs by LC-MS/MS analysis; type: ADME, organism-based; conditions: in vivo
[19] = test system: SUD4; experiment: Induction of apoptosis in human SU-DHL-4 cells assessed as decrease in Bcl-2 protein expression at 0.25 to 1 uM incubated for 12 hrs by Western blot analysis; type: functional, cell-based; conditions: dose 0.25-1 µM
[20] = Toxicity in female BALB/c mouse model xenografted with human SU-DHL-6 cells assessed as effect on spleen histopathology at 20 mg/kg, po administered once daily via gavage for 15 days by H and E staining based analysis; type: organism-based; conditions: in vivo, 360 h, time 15 day
[21] = target: PI3-kinase p110-delta/p85-alpha (Homo sapiens, UniProt O00329); experiment: Inhibition of p110delta/p85alpha (unknown origin) incubated for 2 hrs in presence of ATP by ADP-kinaseGlo reagent based assay; type: protein-complex assay
[22] = target: Phosphatidylinositol 4-phosphate 5-kinase type-1 gamma (Homo sapiens) (UniProt O60331); experiment: Inhibition of human PIP5K1gamma at 1 uM relative to control
Sequence of Phosphatidylinositol 4-phosphate 5-kinase type-1 gamma (Homo sapiens) (O60331 whole entry): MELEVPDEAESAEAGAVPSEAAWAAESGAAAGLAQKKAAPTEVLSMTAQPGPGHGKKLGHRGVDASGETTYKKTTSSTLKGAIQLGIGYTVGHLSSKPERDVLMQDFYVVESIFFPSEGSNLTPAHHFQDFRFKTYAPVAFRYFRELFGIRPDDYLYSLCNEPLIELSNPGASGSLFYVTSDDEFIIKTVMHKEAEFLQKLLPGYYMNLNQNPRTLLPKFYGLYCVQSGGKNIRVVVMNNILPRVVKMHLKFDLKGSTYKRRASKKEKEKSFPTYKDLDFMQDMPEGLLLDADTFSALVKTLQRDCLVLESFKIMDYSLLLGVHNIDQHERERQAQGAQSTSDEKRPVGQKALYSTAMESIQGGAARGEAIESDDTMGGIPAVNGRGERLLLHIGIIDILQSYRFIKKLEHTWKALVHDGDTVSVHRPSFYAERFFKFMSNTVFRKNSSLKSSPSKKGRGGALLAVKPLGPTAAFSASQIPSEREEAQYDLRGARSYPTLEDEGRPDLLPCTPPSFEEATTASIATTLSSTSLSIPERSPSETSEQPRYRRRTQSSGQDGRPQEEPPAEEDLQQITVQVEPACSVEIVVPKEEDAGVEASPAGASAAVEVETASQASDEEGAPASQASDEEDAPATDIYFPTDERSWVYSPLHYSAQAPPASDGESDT

[23] = target: Phosphatidylinositol 5-phosphate 4-kinase type-2 alpha (Homo sapiens) (UniProt P48426); experiment: Inhibition of human PIP4K2alpha at 1 uM relative to control
Sequence of Phosphatidylinositol 5-phosphate 4-kinase type-2 alpha (Homo sapiens) (P48426 whole entry): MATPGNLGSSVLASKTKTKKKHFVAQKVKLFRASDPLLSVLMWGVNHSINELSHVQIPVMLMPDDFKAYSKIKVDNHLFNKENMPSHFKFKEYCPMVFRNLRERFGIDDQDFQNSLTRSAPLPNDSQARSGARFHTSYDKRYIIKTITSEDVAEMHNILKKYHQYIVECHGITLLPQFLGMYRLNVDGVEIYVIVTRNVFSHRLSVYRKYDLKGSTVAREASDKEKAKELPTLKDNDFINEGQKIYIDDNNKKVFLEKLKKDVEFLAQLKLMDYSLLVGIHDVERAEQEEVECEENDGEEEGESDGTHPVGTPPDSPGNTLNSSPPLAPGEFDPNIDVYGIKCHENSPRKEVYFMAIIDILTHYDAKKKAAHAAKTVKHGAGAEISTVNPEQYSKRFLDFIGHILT

[24] = Cmax in female BALB/c mouse at 1 mg/kg, iv measured after 12 hrs by LC-MS/MS analysis; type: ADME, organism-based; conditions: in vivo
[25] = target: Glycogen synthase kinase-3 beta (Homo sapiens) (UniProt P49841); experiment: Inhibition of GSK-3beta phosphorylation in human SU-DHL-4 cells at 0.25 to 1 uM incubated for 12 hrs by Western blot analysis; type: cell-based; conditions: dose 0.25-1 µM
Sequence of Glycogen synthase kinase-3 beta (Homo sapiens) (P49841 whole entry, looked up): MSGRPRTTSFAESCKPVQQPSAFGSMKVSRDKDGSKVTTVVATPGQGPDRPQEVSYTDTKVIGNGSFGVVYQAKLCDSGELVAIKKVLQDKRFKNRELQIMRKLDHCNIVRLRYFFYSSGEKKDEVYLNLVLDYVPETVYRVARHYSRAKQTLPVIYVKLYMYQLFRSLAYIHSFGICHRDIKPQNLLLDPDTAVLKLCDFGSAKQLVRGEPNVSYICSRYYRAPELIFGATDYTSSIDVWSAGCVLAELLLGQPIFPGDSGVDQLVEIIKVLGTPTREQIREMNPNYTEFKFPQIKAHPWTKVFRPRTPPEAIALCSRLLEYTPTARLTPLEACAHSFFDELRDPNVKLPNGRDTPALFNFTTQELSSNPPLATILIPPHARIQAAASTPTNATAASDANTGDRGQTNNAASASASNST

[26] = test system: SU-DHL-6; experiment: Antiproliferative against activity human SU-DHL-6 cells assessed as inhibition of cell growth incubated for 72 hrs by Celltiter-luminescence analysis; type: functional, cell-based; conditions: SU-DHL-6, 72 h
[27] = test system: WI-38; experiment: Cytotoxicity against human WI-38 cells assessed as effect on cell proliferation at 5 to 20 uM incubated for 72 hrs by Celltiter-luminescence analysis; type: toxicity, cell-based; conditions: wi-38, 72 h, dose 5-20 µM
[28] = target: Phosphatidylinositol 4-phosphate 3-kinase C2 domain-containing subunit alpha (Homo sapiens) (UniProt O00443); experiment: Inhibition of human PI3KC2alpha at 1 uM relative to control
Sequence of Phosphatidylinositol 4-phosphate 3-kinase C2 domain-containing subunit alpha (Homo sapiens) (O00443 whole entry, the tested form may be a part): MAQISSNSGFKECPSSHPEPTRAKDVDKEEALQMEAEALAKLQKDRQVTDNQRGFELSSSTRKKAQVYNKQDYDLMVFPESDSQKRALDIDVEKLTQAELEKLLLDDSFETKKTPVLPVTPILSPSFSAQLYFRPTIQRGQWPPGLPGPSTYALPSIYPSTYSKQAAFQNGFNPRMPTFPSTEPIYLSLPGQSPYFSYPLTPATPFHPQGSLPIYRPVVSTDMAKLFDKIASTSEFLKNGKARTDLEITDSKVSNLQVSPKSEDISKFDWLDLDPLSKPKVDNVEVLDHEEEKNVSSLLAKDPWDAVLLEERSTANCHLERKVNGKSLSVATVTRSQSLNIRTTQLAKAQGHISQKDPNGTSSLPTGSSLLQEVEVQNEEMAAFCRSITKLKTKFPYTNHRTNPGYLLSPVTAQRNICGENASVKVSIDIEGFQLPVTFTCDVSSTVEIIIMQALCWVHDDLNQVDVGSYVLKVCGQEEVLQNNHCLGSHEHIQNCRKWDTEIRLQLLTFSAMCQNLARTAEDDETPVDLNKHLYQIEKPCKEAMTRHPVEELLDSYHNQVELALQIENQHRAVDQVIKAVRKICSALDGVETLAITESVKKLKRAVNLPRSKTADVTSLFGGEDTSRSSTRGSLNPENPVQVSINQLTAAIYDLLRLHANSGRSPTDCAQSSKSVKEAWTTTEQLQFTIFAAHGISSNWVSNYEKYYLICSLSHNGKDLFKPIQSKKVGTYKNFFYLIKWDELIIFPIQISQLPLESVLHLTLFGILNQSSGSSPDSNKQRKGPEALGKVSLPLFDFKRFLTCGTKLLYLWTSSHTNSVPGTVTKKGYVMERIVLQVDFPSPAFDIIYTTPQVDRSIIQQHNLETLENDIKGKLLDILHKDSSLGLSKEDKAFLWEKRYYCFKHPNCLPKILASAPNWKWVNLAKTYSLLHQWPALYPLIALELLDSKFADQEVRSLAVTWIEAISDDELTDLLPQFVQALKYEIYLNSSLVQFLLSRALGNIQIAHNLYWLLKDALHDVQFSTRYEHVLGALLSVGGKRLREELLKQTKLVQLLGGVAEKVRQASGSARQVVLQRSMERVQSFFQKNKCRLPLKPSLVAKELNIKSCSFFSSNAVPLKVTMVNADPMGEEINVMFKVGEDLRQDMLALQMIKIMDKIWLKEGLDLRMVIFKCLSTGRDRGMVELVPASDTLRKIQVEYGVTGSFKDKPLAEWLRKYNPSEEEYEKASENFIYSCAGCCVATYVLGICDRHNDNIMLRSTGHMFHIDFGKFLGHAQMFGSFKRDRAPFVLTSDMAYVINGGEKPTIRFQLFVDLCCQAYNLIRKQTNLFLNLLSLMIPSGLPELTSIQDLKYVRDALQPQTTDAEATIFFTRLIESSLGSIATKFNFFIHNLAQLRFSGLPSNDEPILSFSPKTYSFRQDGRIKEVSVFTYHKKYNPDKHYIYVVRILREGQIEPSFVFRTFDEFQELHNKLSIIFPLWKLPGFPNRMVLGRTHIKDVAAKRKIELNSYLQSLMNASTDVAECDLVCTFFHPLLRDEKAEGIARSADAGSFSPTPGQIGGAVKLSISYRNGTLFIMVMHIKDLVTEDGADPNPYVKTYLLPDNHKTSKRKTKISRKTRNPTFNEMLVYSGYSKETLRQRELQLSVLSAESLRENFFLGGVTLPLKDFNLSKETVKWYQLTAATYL

[29] = test system: SUD4; experiment: Induction of apoptosis in human SU-DHL-4 cells assessed as viable cells at 1 uM incubated for 24 hrs by Annexin V-FITC/PI staining based flow cytometric analysis (reference value: 65.2 %); type: functional; conditions: read-out: Activity
[30] = test system: SUD4; experiment: Induction of apoptosis in human SU-DHL-4 cells assessed as early apoptotic cells at 0.5 uM incubated for 24 hrs by Annexin V-FITC/PI staining based flow cytometric analysis (reference value: 25.3 %); type: functional
[31] = species on record: Homo sapiens; experiment: Inhibition of human p110alpha/p65alpha at 1 uM relative to control
[32] = target: Phosphatidylinositol 4,5-bisphosphate 3-kinase catalytic subunit gamma isoform (Homo sapiens, UniProt P48736); experiment: Inhibition of human PI3Kgamma at 1 uM relative to control
Sequence of Phosphatidylinositol 4,5-bisphosphate 3-kinase catalytic subunit gamma isoform (P48736 whole entry, looked up, canonical isoform): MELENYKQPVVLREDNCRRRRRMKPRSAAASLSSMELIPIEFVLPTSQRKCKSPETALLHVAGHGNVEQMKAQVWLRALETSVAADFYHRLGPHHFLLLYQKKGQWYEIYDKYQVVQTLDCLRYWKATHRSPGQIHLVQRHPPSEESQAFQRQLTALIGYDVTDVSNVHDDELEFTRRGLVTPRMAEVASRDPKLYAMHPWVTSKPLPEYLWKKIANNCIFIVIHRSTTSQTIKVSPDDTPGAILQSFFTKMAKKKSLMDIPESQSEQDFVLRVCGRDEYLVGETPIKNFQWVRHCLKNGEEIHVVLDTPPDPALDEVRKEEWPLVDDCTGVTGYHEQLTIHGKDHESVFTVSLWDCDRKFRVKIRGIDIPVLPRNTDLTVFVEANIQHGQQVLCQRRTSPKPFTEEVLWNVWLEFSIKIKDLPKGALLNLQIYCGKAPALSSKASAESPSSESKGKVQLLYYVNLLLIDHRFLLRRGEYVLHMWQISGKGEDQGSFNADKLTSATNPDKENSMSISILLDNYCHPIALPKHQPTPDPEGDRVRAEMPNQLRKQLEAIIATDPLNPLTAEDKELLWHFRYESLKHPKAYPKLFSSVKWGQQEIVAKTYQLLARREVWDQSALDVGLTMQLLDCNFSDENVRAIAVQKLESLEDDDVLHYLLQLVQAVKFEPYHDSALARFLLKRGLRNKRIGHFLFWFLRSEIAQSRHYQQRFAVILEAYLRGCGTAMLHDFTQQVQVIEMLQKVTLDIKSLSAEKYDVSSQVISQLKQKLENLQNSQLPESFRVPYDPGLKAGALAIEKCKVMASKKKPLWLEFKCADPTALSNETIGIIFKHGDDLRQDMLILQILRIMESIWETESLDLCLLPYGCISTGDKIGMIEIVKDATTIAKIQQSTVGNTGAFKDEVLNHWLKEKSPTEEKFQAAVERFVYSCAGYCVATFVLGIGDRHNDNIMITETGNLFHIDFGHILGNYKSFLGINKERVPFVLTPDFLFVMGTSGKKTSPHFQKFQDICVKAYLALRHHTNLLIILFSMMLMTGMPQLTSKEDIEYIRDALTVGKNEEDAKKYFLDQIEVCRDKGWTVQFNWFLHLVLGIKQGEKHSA

[33] = test system: SUD4; experiment: Induction of apoptosis in human SU-DHL-4 cells assessed as necrotic cells at 1 uM incubated for 24 hrs by Annexin V-FITC/PI staining based flow cytometric analysis (reference value: 0.642 %); type: functional
[34] = target: Serine/threonine-protein kinase mTOR (Homo sapiens, UniProt P42345); experiment: Inhibition of mTOR (unknown origin) incubated for 2 hrs in presence of ATP by ADP-kinaseGlo reagent based assay

half-life [3]: 3.8 h
IC50 [6]: 19 nM
AUC(0-t) at 12 h [7]: 145 ng·h/mL
inhibition [9]: 94.1%
AUC(0-t) at 24 h [12]: 2190 ng·h/mL
IC50 [13]: 18 nM
clearance [18]: 112 mL/min/kg
IC50 [21]: 112 nM
inhibition [22]: 75.7%
inhibition [23]: 0.3%
Cmax [24]: 544 ng/mL
inhibition [25]: Active
IC50 [26]: 61 nM
inhibition [28]: 3.4%
inhibition [31]: 41.9%
inhibition [32]: 57.2%
IC50 [34]: > 10000 nM
Structure (SMILES): Cn1cc(-c2nc(N3CCOCC3)c3sc(CN4CCC(C(C)(C)O)CC4)cc3n2)c2cc[nH]c2c1=O
Activity [1]: 32.4%
Activity [2]: 2.8%
Activity [4]: 0.67%
viability at 1 µM [5]: 41.8%
viability at 0.5 µM [8]: 49.1%
viability at 0.25 µM [10]: 53.7%
Activity [11]: Active
Activity [14]: 45.3%
inhibition [15]: Dose-dependent-effect
Activity [16]: 0.58%
viability at 0.5 µM [17]: 49.7%
Activity [19]: Active; Modest Effect Observed
Activity [20]: Non-toxic
Activity [27]: Non-toxic
viability at 1 µM [29]: 28.1%
Activity [30]: 30.8%
Activity [33]: 0.505%
